Experimental data taken from PMC10257182, “Discovery of senolytics using machine learning” (Nature Communications, 2023).
Values joined by “and” are separate entries in the source; they are usually repeats but may differ in a detail not shown here. Identical values can stand only once. Counter-ions that a name gives are not always drawn. Like-named read-outs stand apart in the source and are kept apart here.

Tests used:
Type in all cases: cell-based, human
[1] = system: non-senescent control IMR90 ER:RAS cells; assay: Nuclei count (Hoechst, high content imaging) senolytic assay, OIS model, non-senescent control cells; conditions: for Mean % Cell Survival: mean n=3 (Fig 3C)
Summary of the method: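 Senescence in IMR90 ER:RAS fibroblasts induced with 100 nM 4-OHT; non-senescent and senescent cells treated 72 h with compounds, 10-point […] range 10 μM–10 nM, triplicate. Cells fixed, permeabilised, Hoechst-stained; total nuclei per well counted by high-content imaging versus untreated controls as cell-death readout.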

[2] = system: senescent A549 cells (etoposide-induced); assay: Nuclei count senolytic assay, therapy-induced senescence (TIS) model, senescent cells; conditions: for Mean % Cell Survival: Senescent cells
Summary of the method: (§1)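 A549 cells were made senescent with 100 μM etoposide for 48 h, then kept three days in normal media; non-senescent A549 served as controls. Compounds were dosed as a 10-point […] series (10 μM to 10 nM final) for 72 h in triplicate. Hoechst-stained nuclei were counted by imaging after fixation.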

[3] = system: non-senescent control A549 cells; assay: Nuclei count senolytic assay, TIS model, non-senescent control cells; conditions: for Mean % Cell Survival: Control cells
Summary of the method: as §1

[4] = Homo sapiens, A549, read-out: Mean % Cell Survival

For `CC(C)=CCc1c(O)cc2oc3cc(O)c(O)c(CC=C(C)C)c3c(=O)c2c1O` [Gamma mangostin, gamma mangostin], the “% Cell Survival” value ([1]; Control cells, log (dose) [M] -5, individual replicates, SUP FIG 4C) was 83.3507% and 108.05% and 79.5367% and 95.8097%, the “% Cell Survival” value ([1]; Control cells, log (dose) [M] -5.33, individual replicates, SUP FIG 4C) was 87.0968% and 96.0317% and 81.9498% and 89.128% and the “% Cell Survival” value ([1]; Control cells, log (dose) [M] -5.66, individual replicates, SUP FIG 4C) was 85.64% and 147.846% and 85.3282% and 103.058%. The “% Cell Survival” value ([1]; Control cells, log (dose) [M] -6, individual replicates, SUP FIG 4C) was 61.4984% and 93.424% and 84.0734% and 96.1495%, the “% Cell Survival” value ([1]; Control cells, log (dose) [M] -6.33, individual replicates, SUP FIG 4C) was 89.5942% and 95.6916% and 116.216% and 74.9717% and the “% Cell Survival” value ([1]; Control cells, log (dose) [M] -6.66, individual replicates, SUP FIG 4C) was 89.282% and 97.3923% and 91.7954% and 95.8097%. The “% Cell Survival” value ([1]; Control cells, log (dose) [M] -7, individual replicates, SUP FIG 4C) was 92.924% and 97.5057% and 90.1544% and 99.6602%, the “% Cell Survival” value ([1]; Control cells, log (dose) [M] -7.33, individual replicates, SUP FIG 4C) was 93.7565% and 97.2789% and 93.4363% and 109.513% and the “% Cell Survival” value ([1]; Control cells, log (dose) [M] -7.66, individual replicates, SUP FIG 4C) was 96.9823% and 99.8866% and 98.9382% and 108.494%. For the same compound, the “% Cell Survival” value ([1]; Control cells, log (dose) [M] -8, individual replicates, SUP FIG 4C) was 107.7% and 97.0522% and 93.3398% and 109.173%, the “Mean % Cell Survival” value ([1]; Control, log (dose) [M] -5, 72 h) was 91.6867% and the “Mean % Cell Survival” value ([1]; Control, log (dose) [M] -5.33, 72 h) was 88.5516%. For the same compound, the “Mean % Cell Survival” value ([1]; Control, log (dose) [M] -5.66, 72 h) was 105.468%, the “Mean % Cell Survival” value ([1]; Control, log (dose) [M] -6, 72 h) was 83.7863% and the “Mean % Cell Survival” value ([1]; Control, log (dose) [M] -6.33, 72 h) was 94.1184%. For the same compound, the “Mean % Cell Survival” value ([1]; Control, log (dose) [M] -6.66, 72 h) was 93.5698%, the “Mean % Cell Survival” value ([1]; Control, log (dose) [M] -7, 72 h) was 95.0611% and the “Mean % Cell Survival” value ([1]; Control, log (dose) [M] -7.33, 72 h) was 98.4962%. For the same compound, the “Mean % Cell Survival” value ([1]; Control, log (dose) [M] -7.66, 72 h) was 101.075%, the “Mean % Cell Survival” value ([1]; Control, log (dose) [M] -8, 72 h) was 101.816% and the “% Cell Survival” value ([1]; Control, log (dose) [M] -5) was 92.5926% and 96.693% and 91.9267%. The “% Cell Survival” value ([1]; Control, log (dose) [M] -5.33) was 94.2308% and 86.4127% and 82.768%, the “% Cell Survival” value ([1]; Control, log (dose) [M] -5.66) was 90.6695% and 83.6808% and 81.9539% and the “% Cell Survival” value ([1]; Control, log (dose) [M] -6) was 85.6125% and 87.1316% and 81.6147%. For the same compound, the “% Cell Survival” value ([1]; Control, log (dose) [M] -6.33) was 95.7977% and 84.3997% and 85.8209%, the “% Cell Survival” value ([1]; Control, log (dose) [M] -6.66) was 91.7379% and 85.9813% and 84.5319% and the “% Cell Survival” value ([1]; Control, log (dose) [M] -7) was 95.6553% and 92.739% and 90.502%. For the same compound, the “% Cell Survival” value ([1]; Control, log (dose) [M] -7.33) was 96.8661% and 91.0137% and 90.4342%, the “% Cell Survival” value ([1]; Control, log (dose) [M] -7.66) was 96.7236% and 96.7649% and 94.3691% and the “% Cell Survival” value ([1]; Control, log (dose) [M] -8) was 100.783% and 103.882% and 95.7938%. The “Mean % Cell Survival” value ([2]; log (dose) [M] -5) was 104.426%, the “Mean % Cell Survival” value ([2]; log (dose) [M] -5.33) was 105.938% and the “Mean % Cell Survival” value ([2]; log (dose) [M] -5.66) was 108.604%. The “Mean % Cell Survival” value ([2]; log (dose) [M] -6) was 101.088%, the “Mean % Cell Survival” value ([2]; log (dose) [M] -6.33) was 110.065% and the “Mean % Cell Survival” value ([2]; log (dose) [M] -6.66) was 106.259%. The “Mean % Cell Survival” value ([2]; log (dose) [M] -7) was 114.559%, the “Mean % Cell Survival” value ([2]; log (dose) [M] -7.33) was 114.138% and the “Mean % Cell Survival” value ([2]; log (dose) [M] -7.66) was 105.957%. The “Mean % Cell Survival” value ([2]; log (dose) [M] -8) was 105.108%, the “Mean % Cell Survival” value ([3]; log (dose) [M] -5) was 93.7374% and the “Mean % Cell Survival” value ([3]; log (dose) [M] -5.33) was 87.8038%. For the same compound, the “Mean % Cell Survival” value ([3]; log (dose) [M] -5.66) was 85.4347%, the “Mean % Cell Survival” value ([3]; log (dose) [M] -6) was 84.7862% and the “Mean % Cell Survival” value ([3]; log (dose) [M] -6.33) was 88.6728%. The “Mean % Cell Survival” value ([3]; log (dose) [M] -6.66) was 87.417%, the “Mean % Cell Survival” value ([3]; log (dose) [M] -7) was 92.9654% and the “Mean % Cell Survival” value ([3]; log (dose) [M] -7.33) was 92.7713%. For the same compound, the “Mean % Cell Survival” value ([3]; log (dose) [M] -7.66) was 95.9525% and the “Mean % Cell Survival” value ([3]; log (dose) [M] -8) was 100.153%.
Work on `C[C@H](CCC(=O)NCCS(=O)(=O)O)[C@H]1CC[C@H]2[C@@H]3[C@H](O)C[C@@H]4C[C@H](O)CC[C@]4(C)[C@H]3C[C@H](O)[C@]12C` [Taurocholic acid sodium, taurocholic acid sodium salt hydrate] yielded a viability at 10 µM ([1]; Homo sapiens, IMR-90, 72 h, read-out: Mean % Cell Survival, Control, log (dose) [M] -5, 72 h, mean n=3 (Fig 3C)) of 105%, a viability at 4.677 µM ([1]; Homo sapiens, IMR-90, 72 h, read-out: Mean % Cell Survival, Control, log (dose) [M] -5.33, 72 h, mean n=3 (Fig 3C)) of 107% and a viability at 2.188 µM ([1]; Homo sapiens, IMR-90, 72 h, read-out: Mean % Cell Survival, Control, log (dose) [M] -5.66, 72 h, mean n=3 (Fig 3C)) of 115%. The viability at 1 µM ([1]; Homo sapiens, IMR-90, 72 h, read-out: Mean % Cell Survival, Control, log (dose) [M] -6, 72 h, mean n=3 (Fig 3C)) was 108%, the viability at 0.4677 µM ([1]; Homo sapiens, IMR-90, 72 h, read-out: Mean % Cell Survival, Control, log (dose) [M] -6.33, 72 h, mean n=3 (Fig 3C)) was 104% and the viability at 0.2188 µM ([1]; Homo sapiens, IMR-90, 72 h, read-out: Mean % Cell Survival, Control, log (dose) [M] -6.66, 72 h, mean n=3 (Fig 3C)) was 95.4%. The viability at 0.1 µM ([1]; Homo sapiens, IMR-90, 72 h, read-out: Mean % Cell Survival, Control, log (dose) [M] -7, 72 h, mean n=3 (Fig 3C)) was 81%, the viability at 0.04677 µM ([1]; Homo sapiens, IMR-90, 72 h, read-out: Mean % Cell Survival, Control, log (dose) [M] -7.33, 72 h, mean n=3 (Fig 3C)) was 94.8% and the viability at 0.02188 µM ([1]; Homo sapiens, IMR-90, 72 h, read-out: Mean % Cell Survival, Control, log (dose) [M] -7.66, 72 h, mean n=3 (Fig 3C)) was 103%. The viability at 0.01 µM ([1]; Homo sapiens, IMR-90, 72 h, read-out: Mean % Cell Survival, Control, log (dose) [M] -8, 72 h, mean n=3 (Fig 3C)) was 98.6%, the viability at 10 µM ([1]; Homo sapiens, IMR-90, read-out: % Cell Survival, Control cells, log (dose) [M] -5, individual replicates, SUP FIG 4C) was 105% and the viability at 4.677 µM ([1]; Homo sapiens, IMR-90, read-out: % Cell Survival, Control cells, log (dose) [M] -5.33, individual replicates, SUP FIG 4C) was 105%. The viability at 2.188 µM ([1]; Homo sapiens, IMR-90, read-out: % Cell Survival, Control cells, log (dose) [M] -5.66, individual replicates, SUP FIG 4C) was 122%, the viability at 0.2188 µM ([1]; Homo sapiens, IMR-90, read-out: % Cell Survival, Control cells, log (dose) [M] -6.66, individual replicates, SUP FIG 4C) was 98.1% and the viability at 0.02188 µM ([1]; Homo sapiens, IMR-90, read-out: % Cell Survival, Control cells, log (dose) [M] -7.66, individual replicates, SUP FIG 4C) was 103%. The viability at 0.01 µM ([1]; Homo sapiens, IMR-90, read-out: % Cell Survival, Control cells, log (dose) [M] -8, individual replicates, SUP FIG 4C) was 95%, the viability at 10 µM ([1]; Homo sapiens, IMR-90, read-out: % Cell Survival, Control, log (dose) [M] -5) was 101% and the viability at 4.68 µM ([1]; Homo sapiens, IMR-90, read-out: % Cell Survival, Control, log (dose) [M] -5.33) was 103%. The viability at 2.19 µM ([1]; Homo sapiens, IMR-90, read-out: % Cell Survival, Control, log (dose) [M] -5.66) was 108%, the viability at 1 µM ([1]; Homo sapiens, IMR-90, read-out: % Cell Survival, Control, log (dose) [M] -6) was 99.9% and the viability at 0.468 µM ([1]; Homo sapiens, IMR-90, read-out: % Cell Survival, Control, log (dose) [M] -6.33) was 102%. It also gave a viability at 0.219 µM ([1]; Homo sapiens, IMR-90, read-out: % Cell Survival, Control, log (dose) [M] -6.66) of 100%, a viability at 0.1 µM ([1]; Homo sapiens, IMR-90, read-out: % Cell Survival, Control, log (dose) [M] -7) of 87.4% and a viability at 0.04677 µM ([1]; Homo sapiens, IMR-90, read-out: % Cell Survival, Control, log (dose) [M] -7.33) of 102%. For the same compound, the viability at 0.0219 µM ([1]; Homo sapiens, IMR-90, read-out: % Cell Survival, Control, log (dose) [M] -7.66) was 97.8%, the viability at 0.01 µM ([1]; Homo sapiens, IMR-90, read-out: % Cell Survival, Control, log (dose) [M] -8) was 95.8% and the viability at 0.01 µM [2, 4] was 103%. It also gave a viability at 0.0219 µM [2, 4] of 108%, a viability at 0.0468 µM [2, 4] of 103% and a viability at 0.1 µM [2, 4] of 100%. It also gave a viability at 0.219 µM [2, 4] of 109%, a viability at 0.468 µM [2, 4] of 113% and a viability at 1 µM [2, 4] of 112%. For the same compound, the viability at 2.19 µM [2, 4] was 106%, the viability at 4.68 µM [2, 4] was 109% and the viability at 10 µM [2, 4] was 107%. It also gave a viability at 0.01 µM [3, 4] of 66.6%, a viability at 0.0219 µM [3, 4] of 32.6% and a viability at 0.0468 µM [3, 4] of 97.7%. The viability at 0.1 µM [3, 4] was 29.1%, the viability at 0.219 µM [3, 4] was 62.6% and the viability at 0.468 µM [3, 4] was 97.8%. The viability at 1 µM [3, 4] was 95.9%, the viability at 2.19 µM [3, 4] was 69.4% and the viability at 4.68 µM [3, 4] was 66.2%. It also gave a viability at 10 µM [3, 4] of 96.3%.
